The test system of experiment [1] is Bifidobacterium animalis subspecies lactis MCC-525. Put plainly: Mix-culturing with Bifidobacterium bifidum by HMO as sugar source, quantitative PCR. The following applies: for Proliferation rate (number of bacteria after mix-culturing for 8 h/number of bacteria after single bacterial culturing): MCC-525 mix-cultured with Bifidobacterium bifidum (NITE BP-02429), sugar source 2%, Table 8; for Proliferation rate of MCC-525 (mix-cultured bacteria after 8 h/single bacterial culturing 8 h): Table 10; for number of proliferating bacteria of MCC-525 in combination with seven strains of Bifidobacterium bifidum compared to single bacterium culture: summary of Table 10. The experiment is classed as cell-based. How it is done:
(§1) A10% solution of glucose (manufactured by Nakarai Tesque Inc.), and 2′-FL ((≥95%) Funakoshi, available from sigma), and LNnT (manufactured by ELICITYL) as examples of HMOs was prepared with ion exchanged water, and was subjected to sterile filtration using Millex-GV (SLGV033RS).
(§2) Lactobacilli MRS Broth (BD) (0.05% L-Cysteine Hydrochloride for Bacteria of the genus Bifidobacterium) was added to strains of Table 1 below (bacteria belonging to Bifidobacterium bifidum) and Table 2 below. After a sterilization treatment, 3% of the bacterial solution was inoculated, and anaerobically cultured (pre-pre cultured) at 37° C. for 16 h.
(§3) The following day, 1% glucose was added to a modified BL agar medium (“Studies on Bifidobacteria” by Tomotari Mitsuoka, p. 306, Japan Bifidus Foundation, issued in 1994) noted in Table 3, for preparation. After a sterilization treatment, 3% of the pre-pre cultured bacterial solution was inoculated, and anaerobically pre-cultured (pre-cultured) at 37° C. for 12 h.
(§4) The pre-cultured bacterial solution was collected and washed once with a sterile physiological saline solution. Then, mass-up was performed to an equal volume with the modified BL agar medium (“Studies on Bifidobacteria” by Tomotari Mitsuoka, p. 306, Japan Bifidus Foundation, issued in 1994) noted in Table 3 to prepare a suspended bacterial solution.
(§5) The modified BL agar medium (“Studies on Bifidobacteria” by Tomotari Mitsuoka, p. 306, Japan Bifidus Foundation, issued in 1994) noted in Table 3 was prepared at a capacity of 60%, and was subjected to an autoclave sterilization treatment. Then, 40% of each sugar solution prepared in (1) was aseptically added so as to prepare a medium with a sugar concentration of 4%.
The medium prepared in the above (3) was dispensed at a capacity that is half the capacity for aseptic culturing in a 96-well plate, and each of the bacterial solutions of strains of bacteria belonging to Bifidobacterium bifidum in Table 1 and probiotics having a low ability to assimilate human milk oligosaccharides in Table 2, which was prepared in the above (2), was dispensed at a remaining […] capacity into the medium prepared in the above (3) such that the bacterial solution had 12%. Then, a final sugar concentration was set to 2%. The plate into which the bacterial solution was dispensed was anaerobically cultured at 37° C. for 8 h.
(§6) OD650 was measured from each well in the plates in the above (4) and the above (5) before (0 h) culturing and after (8 h) culturing, by MICROPLATE READER SH-9000 (manufactured by CORONA ELECTRIC). After turbidity measurement, microbial cells were collected, and DNA extraction was performed. After the DNA extraction, the number of proliferating bacteria of Bifidobacteria/lactobacilli was analyzed by using the bacterial species-specific primer noted in Table 4, by a quantitative PCR method (see “Structural analysis of intestinal flora”—analysis of bacterial flora in human feces using quantitative PCR—by Kouichi Watanabe, Enterobacteriological journal, 20:35-42, 2006).
It was decided to culture Bifidobacterium bifidum (NITE BP-02429) in which availability of 2′-FL or LNnT was found as described above, in combination with strains in Table 2, which cannot use 2′-FL or LNnT. Bifidobacterium bifidum (NITE BP-02429) and the strains in Table 2, which cannot use 2′-FL or LNnT, were mix-cultured by 2′-FL or LNnT as a sugar source, and after culturing for 8 h, the proliferation rate of the number of bacteria of each strain (proliferation rate=the number of bacteria after mix-culturing for 8 h/the number of bacteria after single bacterial culturing) was measured by a quantitative PCR method using each strain-specific oligonucleotide primer noted in Table 4, for the strain in Table 2.
Seven strains of Bifidobacterium bifidum in Table 1 and Bifidobacterium animalis subspecies lactis MCC-525 which cannot use 2′-FL or LNnT were mix-cultured by 2′-FL or LNnT as a sugar source. […]

Experiment [2] deals with Lactobacillus paracasei ATCC25302. Description: Single bacterial culturing with HMO as sugar source, OD650. Format: cell-based. To be noted: ATCC 25302^T, sugar source 2%, 8 h. How it is done:
as §1, §2, §3, §4, §5
(§7) The medium prepared in the above (3) was dispensed at a capacity that is half the capacity for culturing in a 96-well plate, and the bacterial solution prepared in the above (2) was dispensed at a remaining half capacity such that the bacterial solution had 6%. Then, a final sugar concentration was set to 2%. The plate into which the bacterial solution was dispensed was anaerobically cultured at 37° C. for 8 h.
as §6
Regarding strains in Table 2, each strain was cultured as a single bacterium by 2′-FL or LNnT (HMOs) as a sugar source, and OD650 was measured. The results for 2′-FL are noted in Table 6 below, and the results for LNnT are noted in Table 7 below.

For experiment [3], the system named is Lactobacillus acidophhilus ATCC4356. Description: Mix-culturing with Bifidobacterium bifidum by HMO as sugar source, quantitative PCR. Format: cell-based, Lactobacillus acidophilus. To be noted: ATCC 4356^T mix-cultured with Bifidobacterium bifidum (NITE BP-02429), sugar source 2%, Table 8. Here is the method: as §1
Lactobacilli MRS Broth (BD) (0.05% L-Cysteine Hydrochloride for Bacteria of the genus Bifidobacterium) was added to strains of Table 1 below (bacteria belonging to Bifidobacterium bifidum) and Table 2 below. After a sterilization treatment, 3% of the bacterial solution was inoculated, and anaerobically cultured (pre-pre cultured) at 37° C. for 16 h. […]
OD650 was measured from each well in the plates in the above (4) and the above (5) before (0 h) culturing and after (8 h) culturing, by MICROPLATE READER SH-9000 (manufactured by CORONA ELECTRIC). […] After the DNA extraction, the number of proliferating bacteria of Bifidobacteria/lactobacilli was analyzed by using the bacterial species-specific primer noted in Table 4, by a quantitative PCR method (see “Structural analysis of intestinal flora”—analysis of bacterial flora in human feces using quantitative PCR—by Kouichi Watanabe, Enterobacteriological journal, 20:35-42, 2006). […]

Experiment [4] has as its system Bifidobacterium bifidum NITE BP-02431. Description: Single bacterial culturing with HMO as sugar source, OD650. The experiment is classed as cell-based. The following applies: sugar source 2%, anaerobic 37° C., 8 h, Table 5. Here is the method: as §1, §2, §3, §4, §5, §7, §6
(§8) Regarding bacteria belonging to Bifidobacterium bifidum in Table 1, each strain was cultured as a single bacterium by 2′-FL or LNnT (HMOs) as a sugar source, and OD650 was measured. Table 5 illustrates OD650 increase values after seven strains of the bacteria belonging to Bifidobacterium bifidum in Table 1 were cultured for 8 h by 2′-FL or LNnT as a sugar source.

Experiment [5] deals with Bifidobacterium bifidum NITE BP-02432. The experiment is described as above. The following applies: sugar source 2%, anaerobic 37° C., 8 h, Table 5. Format: cell-based. Here is the method:
as §1, §2, §3, §4, §5, §7, §6, §8

For experiment [6], the system named is Bifidobacterium bifidum NITE BP-02433. The description is as above. Format: cell-based. To be noted: sugar source 2%, anaerobic 37° C., 8 h, Table 5. Here is the method:
as §1, §2, §3, §4, §5, §7, §6, §8

Experiment [7] has as its system Bifidobacterium bifidum ATCC29521. The experiment is described as above. The experiment is classed as cell-based. To be noted: ATCC 29521^T, sugar source 2%, anaerobic 37° C., 8 h, Table 5. How it is done: as §1, §2, §3, §4, §5, §7, §6, §8
The subject of experiment [8] is Bifidobacterium bifidum NITE P-02648. Described as above. Format: cell-based. To be noted: sugar source 2%, anaerobic 37° C., 8 h, Table 5. How it is done: as §1, §2, §3, §4, §5, §7, §6, §8
Experiment [9] deals with Bifidobacterium bifidum NITE BP-1252. Described as above. The experiment is classed as cell-based. To be noted: sugar source 2%, anaerobic 37° C., 8 h, Table 5. Here is the method: as §1, §2, §3, §4, §5, §7, §6, §8
For experiment [10], the system named is Bifidobacterium bifidum NITE BP-02429. The experiment is described as above. The experiment is classed as cell-based. To be noted: 8 h. How it is done:
as §1, §2, §3, §4
The modified BL agar medium (“Studies on Bifidobacteria” by Tomotari Mitsuoka, p. 306, Japan Bifidus Foundation, issued in 1994) noted in Table 3 was prepared at a capacity of 60%, and was subjected to an autoclave sterilization treatment. Then, 40% of each sugar solution prepared in (1) was aseptically added so as to prepare a medium with a sugar concentration of 4%. […]
OD650 was measured from each well in the plates in the above (4) and the above (5) before (0 h) culturing and after (8 h) culturing, by MICROPLATE READER SH-9000 (manufactured by CORONA ELECTRIC). […] After the DNA extraction, the number of proliferating bacteria of Bifidobacteria/lactobacilli was analyzed by using the bacterial species-specific primer noted in Table 4, by a quantitative PCR method (see “Structural analysis of intestinal flora”—analysis of bacterial flora in human feces using quantitative PCR—by Kouichi Watanabe, Enterobacteriological journal, 20:35-42, 2006).
(§9) Regarding bacteria belonging to Bifidobacterium bifidum in Table 1, each strain was cultured as a single bacterium by 2′-FL or LNnT (HMOs) as a sugar source, and OD650 was measured. […]
Regarding strains in Table 2, each strain was cultured as a single bacterium by 2′-FL or LNnT (HMOs) as a sugar source, and OD650 was measured. […]

The subject of experiment [11] is bacteria belonging to Bifidobacterium bifidum in Table 1. Put plainly: Availability of HMOs by bacteria belonging to Bifidobacterium bifidum (single culturing, summary). Format: cell-based. The following applies: single bacterial culturing, 8 h; summary of Table 5. Here is the method:
as §7, §6, §9

The mark [12] stands for this setting: mix-cultured with Bifidobacterium bifidum ATCC 29521^T.
Setting [13] is: mix-cultured with Bifidobacterium bifidum NITE BP-1252.
The mark [14] stands for this setting: mix-cultured with Bifidobacterium bifidum NITE BP-02429.
[15] abbreviates: mix-cultured with Bifidobacterium bifidum NITE BP-02431.
The mark [16] stands for this setting: mix-cultured with Bifidobacterium bifidum NITE BP-02432.
Where [17] appears, read: mix-cultured with Bifidobacterium bifidum NITE BP-02433.
Setting [18] is: mix-cultured with Bifidobacterium bifidum NITE P-02648.
The mark [19] stands for this setting: NITE BP-02429, sugar source 2%, anaerobic 37° C., Table 5.

With 2′-fucosyllactose [2′-FL], the “Proliferation rate (number of bacteria after mix-culturing for 8 h/number of bacteria after single bacterial culturing)” value in experiment [1] is given as 2.62; in [3] it was 3.54. Moreover, the “Proliferation rate of MCC-525 (mix-cultured bacteria after 8 h/single bacterial culturing 8 h)” value in experiment [1] (setting [12]) is 2.01; in [1] (setting [13]), 2.06; in [1] (setting [14]) it was 4.85; in [1] (setting [15]) it was 3.82; in experiment [1] (setting [16]), 2.45; in [1] (setting [17]), 3.67. Also, in [1] (setting [18]), the “Proliferation rate of MCC-525 (mix-cultured bacteria after 8 h/single bacterial culturing 8 h)” value is reported as 4.35. Also, the “number of proliferating bacteria of MCC-525 in combination with seven strains of Bifidobacterium bifidum compared to single bacterium culture” value in experiment [1] is “promoted”. The “OD650 increase value” was −0.011 in experiment [2] (Table 6); 0.037 in experiment [4]; 0.430 in [5]; 0.431 in experiment [6]; 0.060 in [7]; 0.470 in experiment [8]. Moreover, the OD650 increase value amounted to 0.225 in [9]; 0.135 in [10] (NITE BP-02429(PC), sugar source 2%, Table 6); 0.167 in experiment [10] (setting [19]). For the same compound, the “assimilability by all the bacteria belonging to Bifidobacterium bifidum in Table 1” value in [11] was “had assimilability”.

For `CC(=O)N[C@H]1[C@H](O[C@H]2[C@@H](O)[C@@H](CO)O[C@@H](O[C@H]3[C@H](O)[C@@H](O)C(O)O[C@@H]3CO)[C@@H]2O)O[C@H](CO)[C@@H](O[C@@H]2O[C@H](CO)[C@H](O)[C@H](O)[C@H]2O)[C@@H]1O` (mixture of isomers) [LNnT, lacto-N-neotetraose], the figures for the “Proliferation rate (number of bacteria after mix-culturing for 8 h/number of bacteria after single bacterial culturing)” value in [1] and in [3] were 1.41 and 3.77, respectively. Further, the “proliferation promotion effect of the number of bacteria of MCC-525” value in experiment [1] (in the combination with Bifidobacterium bifidum (NITE BP-1252)) is recorded as “significantly higher”. In addition, the “Proliferation rate of MCC-525 (mix-cultured bacteria after 8 h/single bacterial culturing 8 h)” value in experiment [1] (setting [12]) was 3.87; in experiment [1] (setting [13]) it was 19.98; in experiment [1] (setting [14]), 4.17; in experiment [1] (setting [15]), 3.58; in [1] (setting [16]) it was 4.21; in experiment [1] (setting [17]) it was 2.39. Also, the “Proliferation rate of MCC-525 (mix-cultured bacteria after 8 h/single bacterial culturing 8 h)” value in experiment [1] (setting [18]) is 6.03. Also, the “number of proliferating bacteria of MCC-525 in combination with seven strains of Bifidobacterium bifidum compared to single bacterium culture” value in [1] is listed as “promoted”. Moreover, the OD650 increase value in experiment [2] (Table 7) is listed as 0.052; in [4] it was 0.535; in experiment [5], 0.522; in experiment [6], 0.370; in experiment [7] it was 0.008; in [8] it was 0.719. The OD650 increase value in experiment [9] turned out to be 0.373; in experiment [10] (NITE BP-02429 (PC: positive control), sugar source 2%, Table 7), 0.608; in experiment [10] (setting [19]), 0.608. The “assimilability by all the bacteria belonging to Bifidobacterium bifidum in Table 1” value in [11] is listed as “had assimilability”.

Source of the values: patent publication US12022844B2, “Nutritional composition, food/drink composition using nutritional composition, and modified milk powder using nutritional composition” (priority 2018, dated 2024).
